Experiment [1] relates to MIA PaCa-2 cells. Description: In vitro cytotoxicity assay (MTT), 96 h. The format is cell-based, human. Conditions: Homo sapiens, MIA PaCa-2, 96 h incubation. The source says: (§1) Human leukemia cell line CCRF-CEM (CCL-119), human pancreatic cancer cell lines PANC-1 (CRL-1469), MIA PaCa-2 (CRL-1420), and BxPC-3 (CRL-1687), human breast adenocarcinoma cell line MCF-7 (HTB-22), and mouse lung cancer cell line TC-1 (CRL-2785) were from the American Type Culture Collection (Rockville, Md.). CCRF-CEM-AraC-8C cells (hENT1 deficient) and CCRF-CEM/dCK^−/− cells (dCK deficient) were kindly provided by Dr. Buddy Ullmann (Oregon Health & Science University, Portland, Oreg.) and Dr. Margaret Black (Washington State University, Pullman, Wash.), respectively. L1210 wt and L1210 10K were kindly supplied by Dr. Lars Petter Jordheim (Université Claude Bernard Lyon I, Lyon, France). TC-1-GR cells were previously developed in our lab. CCRF-CEM, CCRF-CEM-AraC-8C, CCRF-CEM/dCK^−/−, L1210 wt, L1210 10K, TC-1, and TC-1-GR cells were cultured in RPMI 1640 medium. MCF-7 and PANC-1 cells were cultured in Dulbecco's modified Eagle medium (DMEM), MIA PaCa-2 cells were cultured in DMEM medium with 2.5% horse serum. All media were supplemented with 10% fetal bovine serum (FBS), 100 U/mL of penicillin, and 100 μg/mL of streptomycin (all from Invitrogen, Carlsbad, Calif.).
(§2) Cells (5,000/well) were seeded in 96-well plates. After overnight incubation, they were treated with various concentrations of gemcitabine HCl, gemcitabine derivatives, or gemcitabine derivatives in nanoparticles at 37° C., 5% CO2. TC-1 and TC-1-GR cells were incubated for 48 h. CCRF-CEM, CCRF-CEM-AraC-8C, CCRF-CEM/dCK^−/−, L1210 wt, L1210 10K, and MCF-7 cells were incubated for 72 h, and MIA PaCa-2 and PANC-1 for 96 h. Gemcitabine HCl was dissolved in phosphate-buffered saline (PBS), and gemcitabine derivatives were dissolved in dimethyl sulfoxide (DMSO). […] The number of viable cells after the incubation was determined using an MTT assay. Briefly, 3-(4,5-dimethylthiazol-2-yl)-2,5-diphenyltetrazolium bromide (20 μl, 5 mg/mL) was added in each well and incubated for 3 h. Formazan crystals were solubilized with acidified isopropanol (150 μl) (for CCRF-CEM, CCRF-CEM-AraC-8C, CCRF-CEM/dCK^−/−, L1210 wt, and L1210 10K cells) or DMSO (150 μl) (for TC-1, TC-1-GR, MCF-7, PANC-1, and MIA PaCa-2). Absorbance was measured using a BioTek Synergy™ HT Multi-Mode Microplate Reader (BioTek Instruments, Winooski, Vt.) at 570 nm and 630 nm. The fraction of affected (dead) cells (Fa) and the fraction of unaffected (live) cells (Fu) at every dose were calculated, and the Log(Fa/Fu) values were plotted against the Log(concentration of gemcitabine). IC50 was the dose at Log(Fa/Fu)=0, See e.g., Chou, T. C. & Talalay, P., 1984, Adv. Enzyme Regul. 22:27-55. The experiment was repeated at least three times.

Experiment [2] has as its system TC-1 cells. Description: In vitro cytotoxicity assay (MTT), 48 h. The class given is cell-based. Particulars: Mus musculus, TC-1, 48 h incubation.
Text: as §1, §2

Experiment [3] deals with B16-F10 melanoma tumor. Kind of experiment: Antitumor activity of GemC18/PEG-C18 micelles in mice with B16-F10 tumors (Example 20). Particulars: C57BL/6 mice, tail vein injection, 0.283 mg GemHCl or molar equivalent GemC18; 2 doses (micelles 3 doses), 3 days apart. The class given is in vivo, mouse. As to the method:
The in vivo antitumor activity of GemC18/PEG-C18 micelles was evaluated in C57BL/6 mice with subcutaneously inoculated B16-F10 cells (5.0×10^5/mouse) in the right flank. Treatments were given 6 days after tumor cell inoculation by tail vein injection with normal saline, Gemcitabine HCl (GemHCl) solution, GemC18 solution, blank PEG-C18 micelles, or GemC18/PEG-C18 micelles. The dose was 0.283 mg of GemHCl or molar equivalent amount of GemC18. All groups received a second dose three days after the first dose, while the GemC18/PEG-C18 micelle group also received a third dose 3 days after the second dose. Tumor sizes were measured with calipers in two perpendicular diameters every day and reported as tumor volume (V=½ [a×b^2], a=longer diameter, b=shorter diameter).

SMILES strings stand for the structures.

By IC50 is commonly meant the concentration that gives 50% inhibition.

In the case of `Cl.Nc1ccn([C@@H]2O[C@H](CO)[C@@H](O)C2(F)F)c(=O)n1` [Gemcitabine HCl, 2′,2′-difluorodeoxycytidine HCl, reference compound], the figures for the IC50 in experiment [1] and in experiment [2] were 49.7 ± 17.7 nM and 14.7 ± 2.8 nM, respectively. In experiment [3], the “B16-F10 tumor growth (tumor volume)” value is listed as “not significant different from that in mice that received normal saline”.

These data come from patent US20130131008A1, “LIPOPHILIC MONOPHOSPHORYLATED DERIVATIVES AND NANOPARTICLES” (BOARD OF REGENTS, THE UNIVERSITY OF TEXAS SYSTEM, priority 2011, published 2013).
